A short description of the data set: solvent given as SMILES.

On to `c1cc2ccc3cc4cccc5ccc6cc(c1)c2c3c6c54`, for which the emission maximum reads like this: (in C1CCCCC1) 436 nm; (in CC#N) 436 nm; (in CO) 436 nm; (in Cc1ccccc1) 436 nm; (in ClCCl) 437 nm.
Molecule `COCCC1=Cc2nc1ccc1[nH]c(cc1CCOC)c1nc(ccc3[nH]c2cc3CCO)C(CCOC)=C1` had an emission maximum (in Cc1ccccc1) of 643 nm.
As for `COc1ccc(N(c2ccc(OC)cc2)c2cc(N(c3ccc(OC)cc3)c3ccc(OC)cc3)c3ccc4cc(C(C)(C)C)cc5ccc2c3c54)cc1`, the emission maximum (in ClCCl) came to 525 nm.
As to `CCn1c2ccccc2c2cc(C#Cc3cc(C#Cc4ccc5c(c4)c4ccccc4n5CC)nc(C#N)n3)ccc21`, the emission maximum runs as follows: (in C1CCOC1) 495 nm; (in CCOC(C)=O) 494 nm; (in CN(C)C=O) 557 nm; (in Cc1ccccc1) 445 nm; (in ClCCl) 510 nm.
Molecule `COc1ccc(-c2c3nc(cc4ccc([nH]4)c(-c4ccc(OC)c(OCCCC(=O)O)c4)c4nc(cc5ccc2[nH]5)CC4)CC3)cc1OCCCC(=O)O` gave an emission maximum (in CS(C)=O) of 738 nm.
For `CCn1c2ccccc2c2cc(-c3cc(-c4ccc5c(c4)c4ccccc4n5CC)ncn3)ccc21`, the emission maximum runs as follows: (in C1CCOC1) 395 nm; (in CCOC(C)=O) 392 nm; (in CN(C)C=O) 418 nm; (in Cc1ccccc1) 379 nm; (in ClCCl) 414 nm.
The molecule `Oc1ccc(/N=C/c2ccccc2Oc2ccccc2)cc1` came in with an emission maximum (in C1CCCCC1) of 410 nm; an emission maximum (in C1COCCO1) of 414 nm; an emission maximum (in CC#N) of 424 nm; an emission maximum (in CC(C)=O) of 423 nm; an emission maximum (in CC(C)CO) of 410 nm; an emission maximum (in CCCCC) of 410 nm. In addition, the emission maximum reads like this: (in CCCCCC) 428 nm; (in CCCCCCCCO) 420 nm; (in CCCCCCCO) 413 nm; (in CCCCCCO) 413 nm; (in CCCCO) 419 nm; (in CCCCOC(C)=O) 410 nm. Besides, the emission maximum reads like this: (in CCCO) 415 nm; (in CCO) 415 nm; (in CCOC(C)=O) 412 nm; (in CCOCC) 427 nm; (in CN(C)C=O) 423 nm; (in CO) 415 nm. This molecule also came in with an emission maximum (in CS(C)=O) of 418 nm; an emission maximum (in Cc1ccccc1) of 410 nm; an emission maximum (in Cc1ccccc1C) of 414 nm; an emission maximum (in ClC(Cl)Cl) of 415 nm; an emission maximum (in ClCCl) of 414 nm; an emission maximum (in OCCO) of 405 nm. Moreover, the emission maximum (in c1ccccc1) is recorded as 414 nm.
In the case of `c1ccc(-n2c(-c3ccc(-c4ccc5c(c4)C4(c6ccccc6-c6ccccc64)c4cc(-c6ccc(-c7nc8ccccc8n7-c7ccccc7)cc6)c6ccccc6c4-5)cc3)nc3ccccc32)cc1`, under “in ClC(Cl)Cl”, the emission maximum is listed as 440 nm.
Still for that read-out and setting: under `CCCCn1c2ccc(-c3ccc(OC)cc3)cc2c2ccc3c4cc(-c5ccc(OC)cc5)ccc4n(CCCC)c3c21` stands 415 nm.
In the case of `Cc1ccc(/C=C/c2ccccc2-[n+]2cc([O-])on2)cc1`, the emission maximum runs as follows: (in C1CCCCC1) 400 nm; (in CC#N) 504 nm.
Regarding `O=Cc1ccc(-c2ccc(-c3nc4ccccc4s3)c(O)c2)o1`, the emission maximum came to 530 nm (in CCO), 526 nm (in ClCCl) and 563 nm (in O).
`Cc1cc(C)c2c(c1)c1cc(C)cc(C)c1n2-c1ccc2c(c1)Oc1ccccc1B2c1c(C(C)C)cc(C(C)C)cc1C(C)C` came in with an emission maximum (in Cc1ccccc1) of 443 nm.
Consider `CN(C)c1ccc(C2=CC3=C(c4ccc([N+](=O)[O-])cc4)[C@H]4c5ccccc5[C@]3(S2)c2ccccc24)cc1`, for which the emission maximum (in ClCCl) is listed as 625 nm.
`CC(C)(C)NS(=O)(=O)c1ccc2c(c1)C(=O)/C(=C1\Sc3ccc(S(=O)(=O)NC(C)(C)C)cc3C1=O)S2` returned an emission maximum (in C1COCCO1) of 589 nm, an emission maximum (in CN(C)C=O) of 604 nm and an emission maximum (in CS(C)=O) of 618 nm.
As to `Cc1cc(-c2ccccc2)cc(C)[o+]1`, the emission maximum (in CC#N) came out at 462 nm and the emission maximum (in ClCCl) is recorded as 434 nm.
For `Clc1ccc(/C=C(\c2ccccc2)c2nc3ccccc3s2)cc1`, the emission maximum reads like this: (in C1CCCCC1) 420 nm; (in CO) 430 nm.
`CC(=O)c1cc2c(cc1F)NC(C)(C)CC2=O` yielded an emission maximum (in CC#N) of 417 nm and an emission maximum (in CCO) of 457 nm.
Molecule `c1ccc2c(-c3c4ccccc4c(-c4ccc(-c5ccc(-n6c7ccccc7c7ccccc76)cc5)cc4)c4ccccc34)cccc2c1` registered an emission maximum (in ClCCl) of 420 nm.
Molecule `COC(=O)c1ccc(C2=C(/C=C/c3ccc(OC)cc3)O[B-](F)(F)[O+]=C2/C=C/c2ccc(OC)cc2)cc1` displayed an emission maximum (in ClCCl) of 557 nm.
On to `Fc1ccc(-c2cc3c4c(c2)CCc2cc(-c5ccc(F)cc5)cc(c2-4)CC3)cc1`, for which the emission maximum (in C1CCCCC1) worked out at 374.66 nm; the emission maximum (in C1CCOC1) turned out to be 378.18 nm; the emission maximum (in CC#N) worked out at 375.98 nm; the emission maximum (in CCCCCC) is recorded as 374.51 nm; the emission maximum (in CCO) is reported as 375.24 nm; the emission maximum (in CN(C)C=O) was determined as 380.68 nm. Further, the emission maximum by setting is: (in CO) 375.1 nm; (in ClC(Cl)Cl) 379.68 nm; (in ClCCl) 378.91 nm.
For the molecule `CC1=N/C(=C\c2ccccc2N(C)C)C(=O)N1C`, the emission maximum by setting is: (in C1CCCCC1) 472 nm; (in C1CCOC1) 519 nm; (in CC#N) 536 nm; (in CO) 522 nm; (in CS(C)=O) 552 nm; (in ClCCl) 535 nm. The molecule further displayed an emission maximum (in O) of 426 nm.
`CCCN(c1ccccc1)c1ccc2c(c1)C(CC)(CC)c1cc(/C=C/c3ccc(/C=C(\C#N)C(=O)O)s3)ccc1-2`: the emission maximum reads like this: (in C1CCOC1) 572 nm; (in C1COCCO1) 617 nm; (in CC#N) 531 nm; (in CC(C)=O) 575 nm; (in CCOC(C)=O) 552 nm; (in CN(C)C=O) 593 nm. In addition, the emission maximum by setting is: (in CS(C)=O) 514 nm; (in ClCCl) 600 nm.
Take `O=C(O)c1ccccc1Nc1ccccc1`: the emission maximum reads like this: (in C1CCCCC1) 430 nm; (in C1CCOC1) 434 nm; (in C1COCCO1) 432 nm; (in CC#N) 398 nm; (in CCOC(C)=O) 434 nm; (in CN(C)C=O) 386 nm. For the same molecule, the emission maximum (in CO) was determined as 390 nm and the emission maximum (in ClC(Cl)Cl) is recorded as 450 nm.
`CCN(CC)c1ccc2cc(/C=C/C(=O)/C=C(O)/C=C/c3cc4ccc(N(CC)CC)cc4oc3=O)c(=O)oc2c1`: the emission maximum is, setting by setting: (in C1CCOC1) 568 nm; (in C1COCCO1) 561 nm; (in CC#N) 609 nm; (in CC(C)=O) 598 nm; (in CCOC(C)=O) 566 nm; (in CN(C)C=O) 611 nm. Besides, the emission maximum by setting is: (in CS(C)=O) 621 nm; (in Cc1ccccc1) 542 nm; (in ClC(Cl)Cl) 581 nm; (in ClCCl) 593 nm.
Regarding `CC(C)c1cc(C(C)C)c(B2c3cc(N4c5ccccc5Oc5ccccc54)ccc3N(c3ccccc3)c3ccc(N4c5ccccc5Oc5ccccc54)cc32)c(C(C)C)c1`, the emission maximum runs as follows: (in C1CCOC1) 554.08 nm; (in CCOC(C)=O) 546.26 nm; (in Cc1ccccc1) 510.2 nm; (in ClCCl) 546.26 nm; (in c1cc(-c2cccc(-n3c4ccccc4c4ccccc43)c2)cc(-n2c3ccccc3c3ccccc32)c1) 512 nm.
The molecule `Cn1c(-c2ccc(-c3nc(-c4ccccc4)c(-c4ccccc4)n3C)s2)nc(-c2ccccc2)c1-c1ccccc1` displayed an emission maximum (in CC#N) of 470 nm.
For the molecule `N=c1oc2ccccc2cc1-c1ccc([N+](=O)[O-])cc1`, the emission maximum was 442 nm (in C1CCOC1), 550 nm (in CC#N), 589 nm (in CS(C)=O) and 436 nm (in ClC(Cl)Cl).
Turning to `N#Cc1c(-n2c3ccccc3c3ccccc32)c(F)c(-n2c3ccccc3c3ccccc32)c(-n2c3ccccc3c3ccccc32)c1-n1c2ccccc2c2ccccc21`, the emission maximum is reported as 453 nm (in Cc1ccccc1) and 470 nm (in c1ccc([Si](c2ccccc2)(c2ccc(-n3c4ccccc4c4ccccc43)cc2)c2ccc(-n3c4ccccc4c4ccccc43)cc2)cc1).
`Cc1cc(-c2ccc(C(C)(C)C)cc2)c2nsnc2c1-c1ccc(C(C)(C)C)cc1`: the emission maximum (in ClCCl) was 489 nm.
`F[B-]1(F)n2c(ccc2-c2nc3ccccc3s2)C(c2ccccc2)=C2C=CC(c3nc4ccccc4s3)=[N+]21` gave an emission maximum (in ClC(Cl)Cl) of 643 nm.
For `CN(C)c1ccc(-c2cc3ccc([N+](=O)[O-])cc3c(=O)o2)cc1`, the emission maximum runs as follows: (in CC(C)=O) 682 nm; (in CCCCO) 559 nm; (in CCOC(C)=O) 621 nm; (in CN(C)C=O) 605 nm; (in CO) 605 nm; (in ClC(Cl)Cl) 652 nm.
Turning to `CC(C)c1cccc(C(C)C)c1N1C(=O)c2ccc3c(-c4ccc(C(=O)O)cc4)c4c5ccc6c7c(ccc(c(-c8ccc(C(=O)O)cc8)c4c4ccc(c2c34)C1=O)c75)C(=O)N(c1c(C(C)C)cccc1C(C)C)C6=O`, for the setting “in ClCCl”, the emission maximum is recorded as 682 nm.
For `COc1ccccc1C1=[N+]2C(=Cc3c4cc5ccccc5cc4c(-c4ccccc4OC)n3[B-]2(F)F)c2cc3ccccc3cc21`, the emission maximum (in C1CCOC1) turned out to be 760 nm.
In turn, `COC(=O)c1ccc(C2=C3C=c4sccc4=[N+]3[B-](F)(F)n3c2cc2sccc23)cc1` showed an emission maximum (in ClCCl) of 604 nm.
Consider `CC1=CC(C)=[N+]2C1=C(c1ccccc1)c1c(C)cc(/C=C/c3ccccc3)n1[B-]2(F)F`, for which the emission maximum (in CC#N) is 569 nm.
Take `CCc1c(C(=O)OC)c(C(=O)OC)c2ccc(-c3ccccc3)nn12`: the emission maximum (in CCCCCC) is on record as 471 nm.
